Data on 55 compounds can be found in patent US8541434B2, “Ethynyl-substituted pyridine and pyrimidine derivatives and their use in treating viral infections” (Merck Sharp & Dohme Corp., priority 2008, dated 2013).

Molecules are shown by their SMILES.

For the test, the system named is HCV replicon cells. Briefly: Cell-based HCV replicon assay (replicon RNA level by real time PCR, Taqman). The settings on record: Hepatitis C virus, 72 h, harvested on day 3, EC90 = concentration necessary to achieve ΔCT=3.2 over the baseline, read-out: EC90 Range. The method, then:
Assays Cell-Based HCV Replicon Assay
To measure cell-based anti-HCV activity of the compounds of the present invention, replicon cells were seeded at 5000 cells/well in 96-well collagen I-coated Nunc plates in the presence of the compound of the invention. […] The final concentration of DMSO was 0.5%, fetal bovine serum was 10%, in the assay media. Cells were harvested on day 3 by the addition of 1× cell lysis buffer (Ambion cat #8721). The replicon RNA level was measured using real time PCR (Taqman assay). The amplicon was located in 5B. […] GAPDH RNA was used as endogenous control and was amplified in the same reaction as NS5B (multiplex PCR) using primers and VIC-labeled probe recommended by the manufacturer (PE Applied Biosystem). The real-time RT-PCR reactions were run on ABI PRISM 7900HT Sequence Detection System using the following program: 48° C. for 30 min, 95° C. for 10 min, 40 cycles of 95° C. for 15 sec, 60° C. for 1 min. The ACT values (CT5B-CTGAPDH) were plotted against the concentration of test compound and fitted to the sigmoid dose-response model using GraphPad PRISM software. EC50 was defined as the concentration of inhibitor necessary to achieve ΔCT=1 over the projected baseline; EC90 the concentration necessary to achieve ΔCT=3.2 over the baseline. Alternatively, to quantitate the absolute amount of replicon RNA, a standard curve was established by including serially diluted T7 transcripts of replicon RNA in the Taqman assay. All Taqman reagents were from PE Applied Biosystems. Such an assay procedure was described in detail in e.g. Malcolm et al., Antimicrobial Agents and Chemotherapy 50: 1013-1020 (2006).
(In general: Replicon systems follow genome replication, usually without infectious particles.)
The term EC90 denotes the concentration needed for an effect of 90%. Turning to `COCCNc1nc(Cl)c(C#Cc2ccc(OC)nc2C)c(N[C@@H]2C[C@H](CO)[C@@H](O)[C@H]2O)n1` [Compound 67], the EC90 was at most 500 nM. As to `Nc1nc(Cl)c(C#Cc2ccoc2)c(N[C@@H]2C[C@H](CO)[C@@H](O)[C@H]2O)n1` [Compound 11], the EC90 lay in the range of 500 to 5000 nM. With `CN(C)c1nc(Cl)c(C#Cc2cccs2)c(N[C@@H]2C[C@H](CO)[C@@H](O)[C@H]2O)n1` [Compound 48] the figure was above 5000 nM; with `COc1ccc(C#Cc2c(C)nc(NCCCO)nc2N[C@@H]2C[C@H](CO)[C@@H](O)[C@H]2O)cn1` [Compound 78], at most 500 nM. With `CCOc1ccc(C#Cc2c(Cl)nc(NCCOC)nc2N[C@@H]2C[C@H](CO)[C@@H](O)[C@H]2O)c(C)n1` [Compound 71], the EC90 was at most 500 nM. As for `COc1ccc(C#Cc2c(Cl)nc(N)nc2N[C@@H]2C[C@H](CO)[C@@H](O)[C@H]2O)c(C)c1` [Compound 29], the EC90 fell in the range of 500 to 5000 nM.

As to `Nc1nc(Cl)c(C#Cc2cccnc2Cl)c(N[C@@H]2C[C@H](CO)[C@@H](O)[C@H]2O)n1` [Compound 10], the EC90 lay within 500 to 5000 nM. Consider `Nc1nc(Cl)c(C#Cc2ccc(C(=O)C(F)(F)F)s2)c(N[C@@H]2C[C@H](CO)[C@@H](O)[C@H]2O)n1` [Compound 40], for which the concentration for an effect of 90% (EC90) lay within 500 to 5000 nM. Take `Cc1ccc(C#Cc2c(Cl)nc(N)nc2N[C@@H]2C[C@H](CO)[C@@H](O)[C@H]2O)c(C)n1` [Compound 16]: the 90% effect concentration (EC90) is at most 500 nM. `COc1ccc(C#Cc2c(Cl)nc(N)nc2N[C@@H]2C[C@H](CO)[C@@H](O)[C@H]2O)c(C)n1` [Compound 3]: the 90% effect concentration (EC90) is at most 500 nM.

Take `CNc1nc(Cl)c(C#Cc2ccc(OC)nc2)c(N[C@@H]2C[C@H](CO)[C@@H](O)[C@H]2O)n1` [Compound 19]: the 90% effect concentration (EC90) was at most 500 nM.

On to `CCOc1ccc(C#Cc2c(Cl)nc(N(C)C)nc2N[C@@H]2C[C@H](CO)[C@@H](O)[C@H]2O)cn1` [Compound 23], for which the EC90 is above 5000 nM.

For `Nc1nc(Cl)c(C#Cc2ncc(CO)s2)c(N[C@@H]2C[C@H](CO)[C@@H](O)[C@H]2O)n1` [Compound 47], the 90% effect concentration (EC90) was above 5000 nM. With `Nc1nc(Cl)c(C#Cc2ccc(-c3ccno3)s2)c(N[C@@H]2C[C@H](CO)[C@@H](O)[C@H]2O)n1` [Compound 43] the figure was 500 to 5000 nM; with `COc1ccc(C#Cc2c(Cl)nc(N)nc2N[C@@H]2C[C@H](CO)[C@@H](O)[C@H]2O)cn1` [Compound 20, (1R,2S,3R,5R)-3-[[2-Amino-6-chloro-5-[2-(2-methoxypyridin-5-yl)ethynyl]-4-pyrimidinyl]amino]-5-(hydroxymethyl)-1,2-cyclopentanediol], at most 500 nM. `COC(=O)c1ncccc1C#Cc1c(Cl)nc(N(C)C)nc1N[C@@H]1C[C@H](CO)[C@@H](O)[C@H]1O` [Compound 62]: the EC90 lay in the range of 500 to 5000 nM. In the case of `CCNc1nc(C)c(C#Cc2ccc(OC)nc2)c(N[C@@H]2C[C@H](CO)[C@@H](O)[C@H]2O)n1` [Compound 91], the EC90 was at most 500 nM. Take `Cc1nc(NCc2ccccn2)nc(N[C@@H]2C[C@H](CO)[C@@H](O)[C@H]2O)c1C#Cc1ccsc1` [Compound 102]: the 90% effect concentration (EC90) is at most 500 nM.

Take `Cc1nc(OCC(F)(F)F)ccc1C#Cc1c(Cl)nc(NCC(F)(F)F)nc1N[C@@H]1C[C@H](CO)[C@@H](O)[C@H]1O` [Compound 70]: the EC90 is 500 to 5000 nM. With `CCCc1ccc(C#Cc2c(Cl)nc(N)nc2N[C@@H]2C[C@H](CO)[C@@H](O)[C@H]2O)cn1` [Compound 79] the figure was at most 500 nM; with `COC[C@H]1C[C@@H](Nc2nc(N)nc(Cl)c2C#Cc2ccsc2)[C@H](O)[C@@H]1O` [Compound 61], 500 to 5000 nM. With `COc1ccc(C#Cc2c(C)nc(NCC3CC3)nc2N[C@@H]2C[C@H](CO)[C@@H](O)[C@H]2O)cn1` [Compound 92] the figure was at most 500 nM; with `Cc1nc(-c2nccs2)ccc1C#Cc1c(Cl)nc(N)nc1N[C@@H]1C[C@H](CO)[C@@H](O)[C@H]1O` [Compound 63], at most 500 nM. Consider `COCCNc1nc(Cl)c(C#Cc2ccc(OCC(F)(F)F)nc2C)c(N[C@@H]2C[C@H](CO)[C@@H](O)[C@H]2O)n1` [Compound 69], for which the concentration for an effect of 90% (EC90) lay in the range of 500 to 5000 nM. Turning to `CCOc1ccc(C#Cc2c(Cl)nc(NCC(F)(F)F)nc2N[C@@H]2C[C@H](CO)[C@@H](O)[C@H]2O)c(C)n1` [Compound 72], the EC90 was at most 500 nM. For `OC[C@H]1C[C@@H](Nc2nc(NCC(F)(F)F)nc(Cl)c2C#Cc2ccc(-c3ccccn3)s2)[C@H](O)[C@@H]1O` [Compound 97], the concentration for an effect of 90% (EC90) is at most 500 nM. Take `CCOCCNc1nc(C)c(C#Cc2ccsc2)c(N[C@@H]2C[C@H](CO)[C@@H](O)[C@H]2O)n1` [Compound 103]: the EC90 was at most 500 nM. For `CNc1nc(Cl)c(C#Cc2ccc(OC)nc2C)c(N[C@@H]2C[C@H](CO)[C@@H](O)[C@H]2O)n1` [Compound 65], the EC90 is at most 500 nM. With `COCCNc1nc(C)c(C#Cc2ccc(OC)nc2C)c(N[C@@H]2C[C@H](CO)[C@@H](O)[C@H]2O)n1` [Compound 82] the figure was at most 500 nM; with `Nc1nc(Cl)c(C#Cc2ccc(C3CCCCN3)s2)c(N[C@@H]2C[C@H](CO)[C@@H](O)[C@H]2O)n1` (stereo partly shown) [Compound 31], at most 500 nM; with `Nc1nc(Cl)c(C#Cc2ccc(-c3ccccn3)s2)c(N[C@@H]2C[C@H](CO)[C@@H](O)[C@H]2O)n1` [Compound 34], at most 500 nM.

As to `CCOc1ccc(C#Cc2c(C)nc(N)nc2N[C@@H]2C[C@H](CO)[C@@H](O)[C@H]2O)cn1` [Compound 1], the concentration for an effect of 90% (EC90) was at most 500 nM. As to `CCOc1ccc(C#Cc2c(Cl)nc(NCCOC)nc2N[C@@H]2C[C@H](CO)[C@@H](O)[C@H]2O)cn1` [Compound 73], the EC90 is at most 500 nM. With `CSCCNc1nc(C)c(C#Cc2ccc(-c3ccccn3)s2)c(N[C@@H]2C[C@H](CO)[C@@H](O)[C@H]2O)n1` [Compound 96] the figure was at most 500 nM; with `CCOc1ccc(C#Cc2c(Cl)nc(N)nc2N[C@@H]2C[C@H](CO)[C@@H](O)[C@H]2O)cn1` [Compound 21], at most 500 nM; with `Cc1nc(NCCCO)nc(N[C@@H]2C[C@H](CO)[C@H]3OC(C)(C)O[C@H]32)c1C#Cc1cccs1` [Compound 100], 500 to 5000 nM. For the compound `CNc1nc(Cl)c(C#Cc2ccccc2C(=O)OC(C)C)c(N[C@@H]2C[C@H](CO)[C@@H](O)[C@H]2O)n1` [Compound 50], the EC90 lay in the range of 500 to 5000 nM. On to `Cc1nc(N)nc(N[C@@H]2C[C@H](CO)[C@@H](O)[C@H]2O)c1C#Cc1nccs1` [Compound 80], for which the 90% effect concentration (EC90) was in the range of 500 to 5000 nM. Consider `Nc1nc(Cl)c(C#Cc2ccc(Cl)nc2)c(N[C@@H]2C[C@H](CO)[C@@H](O)[C@H]2O)n1` [Compound 9], for which the 90% effect concentration (EC90) is above 5000 nM.

For `Cc1nc(NCC2CC2)nc(N[C@@H]2C[C@H](CO)[C@@H](O)[C@H]2O)c1C#Cc1ccc(-c2ccccn2)s1` [Compound 104], the concentration for an effect of 90% (EC90) lay in the range of 500 to 5000 nM. As to `COc1ncccc1C#Cc1c(Cl)nc(N)nc1N[C@@H]1C[C@H](CO)[C@@H](O)[C@H]1O` [Compound 12], the EC90 was 500 to 5000 nM. Turning to `Cc1csc(C#Cc2c(Cl)nc(N)nc2N[C@@H]2C[C@H](CO)[C@@H](O)[C@H]2O)n1` [Compound 46], the EC90 is above 5000 nM.

For `COc1ccc(C#Cc2c(C)nc(NCC3CC3)nc2N[C@@H]2C[C@H](CO)[C@@H](O)[C@H]2O)c(OC)n1` [Compound 95], the concentration for an effect of 90% (EC90) was at most 500 nM. With `CCOc1ccc(C#Cc2c(Cl)nc(N)nc2N[C@@H]2C[C@H](CO)[C@@H](O)[C@H]2O)c(C)n1` [Compound 2] the figure was at most 500 nM; with `CCc1nc(C)ccc1C#Cc1c(Cl)nc(N)nc1N[C@@H]1C[C@H](CO)[C@@H](O)[C@H]1O` [Compound 17], 500 to 5000 nM. Regarding `CCOc1ccc(C#Cc2c(C)nc(NCCF)nc2N[C@@H]2C[C@H](CO)[C@@H](O)[C@H]2O)cn1` [Compound 89], the concentration for an effect of 90% (EC90) lay in the range of 500 to 5000 nM. On to `Nc1nc(Cl)c(C#Cc2cncnc2)c(N[C@@H]2C[C@H](CO)[C@@H](O)[C@H]2O)n1` [Compound 45], for which the EC90 is 500 to 5000 nM. Consider `Nc1nc(Cl)c(C#Cc2ccc(Cl)cc2)c(N[C@@H]2C[C@H](CO)[C@@H](O)[C@H]2O)n1` [Compound 27], for which the EC90 is 500 to 5000 nM. As for `Cc1nc(-c2ccccc2)c(C#Cc2c(Cl)nc(NCC(F)(F)F)nc2N[C@@H]2C[C@H](CO)[C@@H](O)[C@H]2O)s1` [Compound 101], the 90% effect concentration (EC90) is 500 to 5000 nM. For the compound `COc1ccc(C#Cc2c(Cl)nc(N(C)C)nc2N[C@@H]2C[C@H](CO)[C@@H](O)[C@H]2O)cn1` [Compound 24], the concentration for an effect of 90% (EC90) was above 5000 nM. As to `COCCNc1nc(C)c(C#Cc2ccc(-c3ccccn3)s2)c(N[C@@H]2C[C@H](CO)[C@@H](O)[C@H]2O)n1` [Compound 105], the EC90 fell in the range of 500 to 5000 nM. For the compound `COc1ccc(C#Cc2c(C)nc(NCCCO)nc2N[C@@H]2C[C@H](CO)[C@H]3OC(C)(C)O[C@H]32)cn1` [Compound 83], the EC90 lay within 500 to 5000 nM.

Regarding `CCCNc1nc(C)c(C#Cc2ccc(OCC)nc2)c(N[C@@H]2C[C@H](CO)[C@@H](O)[C@H]2O)n1` [Compound 87], the EC90 was at most 500 nM. As for `Nc1nc(Cl)c(C#Cc2cncs2)c(N[C@@H]2C[C@H](CO)[C@@H](O)[C@H]2O)n1` [Compound 37], the 90% effect concentration (EC90) is 500 to 5000 nM.

Turning to `Cn1cncc1C#Cc1c(Cl)nc(N)nc1N[C@@H]1C[C@H](CO)[C@@H](O)[C@H]1O` [Compound 30], the EC90 was above 5000 nM.
